Activity calls are given as the source filed them.
Tests used:
[1] = blockers of HIV-1 envelope-mediated cell-cell fusion – cherry-pick, dose response (AID 652057); assay type: functional, cell-based
[2] = blockers of HIV-1 ZM109 envelope-driven cell-cell fusion – HeLa effector, CEM target cells, luciferase, cherry-pick, dose response (AID 652058); assay type: functional, cell-based;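 note: luciferase signal from HIV-1 Env mediated cell-cell fusion of effector and target cells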
[3] = off-target signal loss in HeLa-CEM21 co-culture – HeLa F-luc CTL cells, cherry-picked, counter-screen for HIV-1 Env fusion inhibitor project, dose response (AID 652040); assay type: functional, cell-based;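 note: potency for signal decrease marking cytotoxic or nonspecific inhibition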
[4] = HIV-1 AD8 envelope cell-cell fusion blockers – cherry-pick, dose response (AID 652062); assay type: functional, cell-based;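 note: luciferase signal from cell-cell fusion driven by HIV-1 clade B AD8 Env; potency is for inhibitors of fusion seen as a drop in luminescence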
[5] = molecular target: T1, High affinity choline transporter 1 (Homo sapiens, UniProt Q9GZV3); experiment: human choline transporter blockers, potency – cell-based, 5-point CRC, membrane potential dye, dose response (AID 504840); assay type: functional
T1 sequence (Q9GZV3 whole entry): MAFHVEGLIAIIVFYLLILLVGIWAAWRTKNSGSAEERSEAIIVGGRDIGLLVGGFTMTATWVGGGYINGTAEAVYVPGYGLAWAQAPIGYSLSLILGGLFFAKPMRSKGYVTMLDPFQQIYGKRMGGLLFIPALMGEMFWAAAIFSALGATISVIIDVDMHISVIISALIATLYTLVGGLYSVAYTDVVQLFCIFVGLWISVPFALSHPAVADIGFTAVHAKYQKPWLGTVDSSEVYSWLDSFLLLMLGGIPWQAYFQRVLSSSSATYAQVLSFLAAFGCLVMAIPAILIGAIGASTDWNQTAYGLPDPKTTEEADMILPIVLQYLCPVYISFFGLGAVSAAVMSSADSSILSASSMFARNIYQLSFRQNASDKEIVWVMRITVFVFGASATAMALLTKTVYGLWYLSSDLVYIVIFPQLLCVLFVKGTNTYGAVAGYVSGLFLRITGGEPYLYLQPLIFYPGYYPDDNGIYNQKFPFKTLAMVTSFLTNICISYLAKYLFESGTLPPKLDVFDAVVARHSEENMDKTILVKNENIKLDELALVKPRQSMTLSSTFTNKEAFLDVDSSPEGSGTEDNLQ

[6] = molecular target: T2, DNA repair protein RAD52 homolog (Homo sapiens, UniProt P43351); assay type: functional, biochemical
T2 sequence (P43351 whole entry): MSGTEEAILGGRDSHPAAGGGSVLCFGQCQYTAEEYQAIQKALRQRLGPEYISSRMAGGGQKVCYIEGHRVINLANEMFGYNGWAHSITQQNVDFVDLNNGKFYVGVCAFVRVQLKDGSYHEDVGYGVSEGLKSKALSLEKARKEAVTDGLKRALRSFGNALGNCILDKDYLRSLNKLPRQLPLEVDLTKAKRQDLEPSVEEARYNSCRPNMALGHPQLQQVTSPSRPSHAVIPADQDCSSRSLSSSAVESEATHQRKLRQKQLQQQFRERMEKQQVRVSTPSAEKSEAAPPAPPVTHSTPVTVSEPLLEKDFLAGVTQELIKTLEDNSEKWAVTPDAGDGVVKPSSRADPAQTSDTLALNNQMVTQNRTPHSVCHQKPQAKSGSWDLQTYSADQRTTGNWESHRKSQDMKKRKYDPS

Nonstructural protein 1 = Nonstructural protein 1 (Influenza A virus, UniProt Q194T2); assay type: functional, Influenza A virus (A/California/07/2009(H1N1))
[7] = Luminescence Cell-Based Dose Response to Identify Activators of 5'UTR Stem-Loop Driven Prion Protein mRNA Translation in H4-C Neuroglioblastoma Cells. [Related pubchem assays: 1829 (Project Summary), 1814 (Primary HTS)]; assay type: functional
[8] = Luminescence Cell-Based Dose Response HTS to Identify Activators of Luciferase Translation or Activity in H4 […] Cells. [Related pubchem assays: 1829 (Project Summary), 1814 (Primary HTS)]; assay type: functional
H4 = experiment: Luminescence Cell-Based Dose Response HTS to Identify Activators of 5'UTR Stem-Loop Driven Prion Protein mRNA Translation in H4 Neuroglioblastoma Cells. [Related pubchem assays: 1829 (Project Summary), 1814 (Primary HTS)]; assay type: functional; conditions: Homo sapiens
[9] = Luminescence Cell-Based Dose Response to Identify Activators of Luciferase Translation or Activity in H4-C Neuroglioblastoma Cells. [Related pubchem assays: 1829 (Project Summary), 1814 (Primary HTS)]; assay type: functional
[10] = Luminescence Cell-Based Dose Confirmation to Identify Activators of 5'UTR Stem-Loop Driven Alpha-Synuclein mRNA Translation in H4 Neuroglioblastoma Cells. [Related pubchem assays: 1829 (Project Summary), 1814 (Primary HTS)]; assay type: functional
[11] = viability of PTEN-deleted HCT116 cells – cell-based, HCT116 PTEN knockout, dose response (AID 1047); assay type: functional;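 note: HCT116 colon tumor cells with PTEN knocked out; cells exposed to compound for 60 hours before readout; potency for loss of cell viability measured by luminescence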
[12] = viability of HCT116 lacking mutant beta-catenin – cell-based, human colon tumor, dose response (AID 1045); assay type: functional;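 note: HCT116 colon tumor cells with beta catenin knocked out; cells exposed to compound for 60 hours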
Large T antigen = Large T antigen (Simian virus 40, UniProt P03070); assay type: functional, Betapolyomavirus macacae;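 note: Confirmatory-stage PubChem screen for compounds that inhibit SV40 T antigen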
[13] = molecular target: Induced myeloid leukemia cell differentiation protein Mcl-1 (Homo sapiens, UniProt Q07820); assay type: functional
[14] = Trypanosoma cruzi growth suppression in host cells – NIH3T3 host cells, beta-gal luminescence, confirmation (AID 2044); assay type: functional, cell-based;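 note: intracellular parasites grown in NIH/3T3 mouse fibroblasts as host cells; luminescent beta-galactosidase reporter signal from transgenic T. cruzi replicating inside host cells; inhibitors lower the luminescence signal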
[15] = NIH3T3 cell viability loss – ATP luminescence, mouse fibroblasts, counter-screen, dose response (AID 2010); assay type: functional, cell-based;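 note: cells exposed to compound for about 90 hours before reading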
[16] = molecular target: T3, Heat shock factor protein 1 (Mus musculus, UniProt P38532); experiment: decrease of HSF1-responsive luciferase luminescence – cell-based, NIH3T3, dose retest, confirmation (AID 2382); assay type: functional;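 note: NIH3T3 fibroblasts with HSF1-driven luciferase reporter stressed by proteasome inhibitor MG132; luminescence from HSF1-driven luciferase expression after 8 hours of MG132 stress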
T3 sequence (P38532 whole entry): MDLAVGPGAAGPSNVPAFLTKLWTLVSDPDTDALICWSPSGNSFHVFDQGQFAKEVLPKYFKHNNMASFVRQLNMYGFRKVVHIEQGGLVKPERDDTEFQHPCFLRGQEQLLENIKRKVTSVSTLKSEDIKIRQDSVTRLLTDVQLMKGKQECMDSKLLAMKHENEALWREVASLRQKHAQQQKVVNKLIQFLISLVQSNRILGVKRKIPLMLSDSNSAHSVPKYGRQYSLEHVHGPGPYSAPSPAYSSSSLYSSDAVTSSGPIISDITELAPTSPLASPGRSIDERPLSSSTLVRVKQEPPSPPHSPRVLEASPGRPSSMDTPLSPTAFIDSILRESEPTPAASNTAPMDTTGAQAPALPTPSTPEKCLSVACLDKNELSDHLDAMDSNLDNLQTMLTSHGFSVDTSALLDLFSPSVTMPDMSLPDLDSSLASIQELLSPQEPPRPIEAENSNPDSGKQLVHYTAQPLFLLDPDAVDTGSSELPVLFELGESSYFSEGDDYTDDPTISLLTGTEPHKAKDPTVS

[17] = molecular target: T4, Long-chain-fatty-acid--AMP ligase FadD28 (Mycobacterium tuberculosis, UniProt P9WQ59); experiment: Fluorescence polarization aasay to screen for inhibitors that compete for the binding of FadD28 to a bisubstrate Measured in Biochemical System Using Plate Reader - 2147-01_Inhibitor_Dose_CherryPick_Activity.; assay type: functional, Mycobacterium tuberculosis H37Rv
T4 sequence (P9WQ59 whole entry): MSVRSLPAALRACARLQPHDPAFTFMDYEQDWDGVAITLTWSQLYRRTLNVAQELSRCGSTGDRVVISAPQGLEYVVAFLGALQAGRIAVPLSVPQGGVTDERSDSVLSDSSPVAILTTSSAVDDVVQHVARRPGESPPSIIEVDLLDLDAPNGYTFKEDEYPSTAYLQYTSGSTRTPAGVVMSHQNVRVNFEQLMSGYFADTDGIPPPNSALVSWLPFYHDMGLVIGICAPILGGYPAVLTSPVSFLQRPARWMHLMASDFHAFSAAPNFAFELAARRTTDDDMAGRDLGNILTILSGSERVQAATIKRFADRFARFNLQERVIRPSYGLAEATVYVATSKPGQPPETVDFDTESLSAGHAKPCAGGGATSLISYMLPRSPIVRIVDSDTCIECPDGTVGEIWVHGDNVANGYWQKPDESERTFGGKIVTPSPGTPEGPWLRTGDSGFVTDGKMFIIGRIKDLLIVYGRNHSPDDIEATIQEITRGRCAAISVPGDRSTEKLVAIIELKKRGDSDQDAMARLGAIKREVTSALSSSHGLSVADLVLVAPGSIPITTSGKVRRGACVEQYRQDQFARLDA

Sequence of Nonstructural protein 1 (Q194T2 whole entry): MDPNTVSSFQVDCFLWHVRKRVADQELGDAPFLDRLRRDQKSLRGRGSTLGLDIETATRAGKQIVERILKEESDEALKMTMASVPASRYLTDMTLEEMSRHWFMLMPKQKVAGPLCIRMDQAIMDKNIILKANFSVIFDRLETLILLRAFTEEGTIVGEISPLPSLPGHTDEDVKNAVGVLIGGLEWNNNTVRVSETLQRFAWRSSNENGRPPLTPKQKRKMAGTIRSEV
Sequence of Induced myeloid leukemia cell differentiation protein Mcl-1 (Q07820 whole entry): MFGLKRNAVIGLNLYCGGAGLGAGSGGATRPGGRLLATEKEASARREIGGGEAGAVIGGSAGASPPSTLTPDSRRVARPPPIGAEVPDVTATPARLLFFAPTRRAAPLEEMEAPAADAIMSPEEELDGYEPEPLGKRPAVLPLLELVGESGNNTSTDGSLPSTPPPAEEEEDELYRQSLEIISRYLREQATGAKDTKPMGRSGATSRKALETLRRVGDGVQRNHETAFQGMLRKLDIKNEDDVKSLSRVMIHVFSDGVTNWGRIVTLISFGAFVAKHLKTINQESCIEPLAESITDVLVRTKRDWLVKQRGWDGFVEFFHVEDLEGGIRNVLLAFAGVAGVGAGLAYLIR
Sequence of Large T antigen (P03070 whole entry): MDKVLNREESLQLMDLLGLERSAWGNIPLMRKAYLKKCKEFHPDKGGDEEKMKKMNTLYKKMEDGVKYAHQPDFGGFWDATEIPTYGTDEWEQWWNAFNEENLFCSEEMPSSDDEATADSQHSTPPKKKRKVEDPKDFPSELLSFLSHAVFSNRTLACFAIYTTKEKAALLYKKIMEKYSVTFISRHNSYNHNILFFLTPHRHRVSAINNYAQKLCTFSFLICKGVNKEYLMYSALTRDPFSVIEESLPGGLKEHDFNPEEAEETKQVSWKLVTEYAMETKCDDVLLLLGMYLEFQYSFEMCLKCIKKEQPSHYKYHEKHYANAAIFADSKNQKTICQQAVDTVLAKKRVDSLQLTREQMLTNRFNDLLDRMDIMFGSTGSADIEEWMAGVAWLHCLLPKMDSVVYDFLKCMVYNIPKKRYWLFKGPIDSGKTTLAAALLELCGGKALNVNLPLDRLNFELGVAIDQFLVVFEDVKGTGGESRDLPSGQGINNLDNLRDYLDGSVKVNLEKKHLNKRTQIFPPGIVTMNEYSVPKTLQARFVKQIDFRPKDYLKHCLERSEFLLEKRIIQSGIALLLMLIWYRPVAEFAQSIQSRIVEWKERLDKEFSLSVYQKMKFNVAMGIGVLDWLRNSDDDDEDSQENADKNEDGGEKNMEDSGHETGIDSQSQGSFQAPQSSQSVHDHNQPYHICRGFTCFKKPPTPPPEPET

What does the source list for CN(C[C@@H](CC1CCCCC1)N(C[C@H](Cc1ccccc1)N(CCc1ccccc1)N=O)N=O)N=O?
AC50 [1]: 5.14 µM (active); AC50 [2]: 8.38 µM (active); AC50 [3]: 6.56 µM (active); AC50 [4]: 42.9 µM (active)

Which AC50 [1] does the source give for COc1ccc(CN2CCC(C)(Oc3ccc4c(c3)OCO4)C2)c2ccccc12 (stereo unspecified) here?
The AC50 was 6.46 µM (active).

And the AC50 [2]?
The AC50 was 10.1 µM (active).

What about the AC50 [3] of the same compound?
The AC50 was 12.2 µM (active).

What about the AC50 [4] of the same compound?
Its AC50 is 10.1 µM (active).

Which AC50 [1] does the source give for C[C@H]1CN([C@@H](C)CO)C(=O)Cc2cc(NC(=O)Cc3cn(C)c4ccccc34)ccc2O[C@H]1CN(C)S(=O)(=O)c1ccccc1 here?
Its AC50 is 12.7 µM (active).

And the AC50 [2]?
Its AC50 is 9.19 µM (active).

What about the AC50 [4] of the same compound?
Its AC50 is 23.5 µM (active).

With O=C(/C=C/c1cn(-c2ccccc2)nc1-c1ccc2c(c1)OCCO2)NCCCN1CCOCC1 as the compound, how does the IC50 [5] read?
The IC50 was 20 µM (active).

And the AC50 [6]?
The AC50 was 16.1 µM (active).

Which IC50 (Nonstructural protein 1) does the source give for CCOc1cccc(=NC2CCCCC2)c2c(C)[nH]c(C)c12 here?
The IC50 was 68.8 µM (active).

What about the AC50 [6] of the same compound?
The AC50 was 3.49 µM (active).

With O=C(N/N=C/c1ccc2c(c1)OCO2)c1ccc(Br)o1 as the compound, how does the EC50 [7] read?
Its EC50 is 0.855 µM (active).

What about the EC50 [8] of the same compound?
The EC50 was < 0.1 µM (inconclusive).

And the EC50 (H4)?
The EC50 was 18.6 µM (inconclusive).

And the EC50 [9]?
The EC50 was 0.433 µM (active).

And the EC50 [10]?
Its EC50 is 0.371 µM (active).

With Nc1c(S(=O)(=O)c2cccs2)c2nc3ccccc3nc2n1CCc1ccccc1 as the compound, how does the EC50 [11] read?
Its EC50 is 27 µM (active).

What about the EC50 [12] of the same compound?
The EC50 was 30 µM (active).

And the AC50 [1]?
The AC50 was 9.23 µM (active).

What about the AC50 [2] of the same compound?
The AC50 was 9.26 µM (active).

And the AC50 [3]?
Its AC50 is 12.7 µM (active).

For CN(C)c1ccc(Nc2nc(N)c([N+](=O)[O-])c(N3CCOCC3)n2)cc1, which IC50 (Large T antigen) is on record?
The IC50 was 3.84 µM (active).

And the IC50 [13]?
The IC50 was 0.8 µM (active).

Which results are given for COc1ccc(N=C(S)Nc2cc(C)ccn2)c(OC)c1?
EC50 [7]: 0.393 µM (active); EC50 [8]: < 0.1 µM (inconclusive); EC50 (H4): > 120 µM (not active); EC50 [9]: > 12 µM (not active); EC50 [10]: 0.256 µM (active)

For CCc1nc2ccc(C(=O)NCCN3CCNC3=O)cn2c1N(CC)Cc1cccc(Br)c1, which AC50 [1] is on record?
The AC50 was 1.18 µM (active).

What about the AC50 [2] of the same compound?
Its AC50 is 1.74 µM (active).

What about the AC50 [3] of the same compound?
Its AC50 is 1.85 µM (active).

And the AC50 [4]?
Its AC50 is 3.08 µM (active).

For CCS(=O)(=O)c1nc(S(=O)(=O)c2ccc(C)cc2)c(N2CC(C)OC(C)C2)s1 (stereo unspecified), which EC50 [7] is on record?
The EC50 was > 12 µM (not active).

And the EC50 [8]?
Its EC50 is < 0.1 µM (active).

What about the EC50 (H4) of the same compound?
The EC50 was > 120 µM (not active).

And the EC50 [9]?
Its EC50 is > 12 µM (not active).

What about the EC50 [10] of the same compound?
Its EC50 is 0.81 µM (active).

With COc1ccc(N2CCc3c(C)nc4c(OC)cc(OC)cc4c32)cc1 as the compound, how does the EC50 [14] read?
Its EC50 is 0.97 µM (active).

What about the EC50 [15] of the same compound?
The EC50 was 36.5 µM (active).

And the AC50 [6]?
The AC50 was 3.96 µM (active).

With O=C(NCc1ccccc1)c1cnc2cc3c(cc2c1O)OCCO3 as the compound, how does the EC50 [7] read?
Its EC50 is 0.421 µM (active).

What about the EC50 [8] of the same compound?
Its EC50 is < 0.1 µM (active).

And the EC50 (H4)?
Its EC50 is 0.282 µM (active).

What about the EC50 [9] of the same compound?
The EC50 was 0.334 µM (active).

And the EC50 [10]?
Its EC50 is 0.2 µM (active).

With COc1cccc(NC(=O)Cn2c(=O)oc3cc(S(=O)(=O)N4CCCC4)ccc32)c1 as the compound, how does the EC50 [16] read?
The EC50 was > 195 µM (not active).

What about the AC50 [17] of the same compound?
The AC50 was 44.5 µM (active).

From ChEMBL document CHEMBL1201862, “PubChem BioAssay data set” (2004)
